Results published in the supplement of paper PMC10307832.

Key:
Assay in all cases: relative viability (nuclei count vs DMSO), 5 days (fraction); higher = more cells survive
GW-2580 + Palbociclib = compound: COC1=CC=C(C=C1)COC2=C(C=C(C=C2)CC3=CN=C(N=C3N)N)OC [GW-2580] + CC(=O)c1c(C)c2cnc(Nc3ccc(N4CCNCC4)cn3)nc2n(C2CCCC2)c1=O [Palbociclib] (partner 0.5 µM)
Summary of the method: (§1)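 Lung cancer cell lines, seeded in 1536-well plates, were treated the following day by pin tool with a single drug or with five library-drug doses (not always all listed) in √10 steps on top of a fixed anchor-drug dose. Cells were fixed and nuclei stained in one step after 5 days, and nuclei were counted. Relative viability is the nuclei count for treated wells divided by that for vehicle wells, reported as medians of duplicate plates.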

GW-2580 + Linsitinib = compound: COC1=CC=C(C=C1)COC2=C(C=C(C=C2)CC3=CN=C(N=C3N)N)OC [GW-2580] + C[C@]1(O)C[C@@H](c2nc(-c3ccc4ccc(-c5ccccc5)nc4c3)c3c(N)nccn32)C1 [Linsitinib] (partner 1 µM)
Summary of the method: as §1

GW-2580 + Olaparib = compound: COC1=CC=C(C=C1)COC2=C(C=C(C=C2)CC3=CN=C(N=C3N)N)OC [GW-2580] + O=C(c1cc(Cc2n[nH]c(=O)c3ccccc23)ccc1F)N1CCN(C(=O)C2CC2)CC1 [Olaparib] (partner 8 µM)
Summary of the method: as §1

Fedratinib + Crizotinib = compound: Cc1cnc(Nc2ccc(OCCN3CCCC3)cc2)nc1Nc1cccc(S(=O)(=O)NC(C)(C)C)c1 [Fedratinib] + C[C@@H](Oc1cc(-c2cnn(C3CCNCC3)c2)cnc1N)c1c(Cl)ccc(F)c1Cl [Crizotinib] (partner 1 µM)
Summary of the method: as §1

Fedratinib + Linsitinib = compound: Cc1cnc(Nc2ccc(OCCN3CCCC3)cc2)nc1Nc1cccc(S(=O)(=O)NC(C)(C)C)c1 [Fedratinib] + C[C@]1(O)C[C@@H](c2nc(-c3ccc4ccc(-c5ccccc5)nc4c3)c3c(N)nccn32)C1 [Linsitinib] (partner 1 µM)
Summary of the method: as §1

UMC-11
relative viability (GW-2580 + Palbociclib; first compound 0.08 µM): 0.329 | relative viability (GW-2580 + Palbociclib; first compound 0.8 µM): 0.352 | relative viability (GW-2580 + Palbociclib; first compound 8 µM): 0.348 | relative viability (GW-2580 + Linsitinib; first compound 0.08 µM): 1.02 | relative viability (GW-2580 + Linsitinib; first compound 0.8 µM): 1.15 | relative viability (GW-2580 + Linsitinib; first compound 2.53 µM): 0.998 | relative viability (GW-2580 + Linsitinib; first compound 8 µM): 1.02 | relative viability (GW-2580 + Olaparib; first compound 0.08 µM): 0.358 | relative viability (GW-2580 + Olaparib; first compound 0.8 µM): 0.375 | relative viability (GW-2580 + Olaparib; first compound 2.53 µM): 0.464 | relative viability (GW-2580 + Olaparib; first compound 8 µM): 0.436 | relative viability (Fedratinib + Crizotinib; first compound 0.1 µM): 0.573 | relative viability (Fedratinib + Crizotinib; first compound 0.3162 µM): 0.581 | relative viability (Fedratinib + Crizotinib; first compound 1 µM): 0.379 | relative viability (Fedratinib + Linsitinib; first compound 0.1 µM): 0.995 | relative viability (Fedratinib + Linsitinib; first compound 0.3162 µM): 0.864 | relative viability (Fedratinib + Linsitinib; first compound 1 µM): 0.848
